The subject of series [1] is Colo320HSR introduced with RON-active Δ160 gene. Description: Induction of apoptosis. It is filed as cell-based. From the text: (§1) Additionally, Colo320HSR, the colon cancer cell line in which RON is not expressed, was introduced with the RON-active Δ155 gene and the RON-active Δ160 gene, which are constantly active in the Colo320HSR, and treated with CJ12524 at various concentrations in order to confirm the presence of apoptosis.

Series [2] has as its system Colo320HSR introduced with RON-active Δ155 gene. Description: Induction of apoptosis. It is filed as cell-based.
Text: as §1

Series [3] has as its target T1, RON (p-RON) in HCT8 (Homo sapiens, UniProt Q04912).
T1 construct: endogenous in cells; host or cells: HCT8 (cultured, and as xenograft tumour in nude mice)
In words: Inhibition of RON phosphorylation in HCT8 colon cancer cells. It counts as cell-based. As to conditions: HCT8, various concentrations. The procedure: (§2) The cells in the sample were lysed using RIPA buffer and the protein was extracted therefrom using a high speed centrifuge. The protein in an amount of 30 μg per cell was separated by electrophoresis, transferred onto a PDVF membrane by western blot, and allowed to react with RON antibodies, which were diluted in 5% skim milk at a 1:2000 ratio, at 4° C. for 12 hours. Then, the resultant was washed 3 times with TBS-T buffer for 15 minutes per wash, reacted with the secondary antibodies, which were diluted in 5% skim milk at a 1:2000 ratio, at room temperature for 2 hours, washed 3 times with TBS-T buffer for 15 minutes per wash. The illumination of the PDVF membrane was induced using ECL buffer and the expression of the RON protein was developed using an X-ray film. Additionally, 1 μg of the RON antibody was added to the protein in an amount of 500 μg per cell by immunoprecipitation method, reacted at 4° C. for 12 hours, and anti-antibody beads were added thereto to immunoprecipitate the RON antibody. The resultant was separated by electrophoresis, transferred onto a PDVF membrane by western blot, and allowed to react with p-Tyr antibodies, which were diluted in 5% skim milk at a 1:1000 ratio, at 4° C. for 12 hours. […]

For series [4], the system named is HCT8. Description: Cell invasion (cell metastasis). It counts as cell-based. As to conditions: HCT8, FIG. 7e. The procedure: HCT8, a colon cancer cell line where RON is always phosphorylated, was treated with CJ12524 in order to confirm the degree of cell invasion.
The subject of series [5] is RON (p-RON) in HT29. In words: Inhibition of RON phosphorylation in HT29 colon cancer cells. As to conditions: HT29, various concentrations. It is filed as cell-based. The procedure:
as §2

For series [6], the system named is HCT8 cell line xenograft in nude mice. Description: RON-active cancer cell xenograft model, tumor size, tumor weight, body weight. It is filed as in vivo, mouse. The procedure:
For analyzing the drug sensitivity to CJ12524 in an in-vivo state, the present inventors transplanted a cancer cell line which was determined to be positive against the RON activity into nude mice, and thereby a cancer cell-derived xenograft model ([…]) was prepared.

For series [7], the target named is T2, RON phosphorylation (Homo sapiens, UniProt Q04912).
T2 construct: endogenous in cells; host or cells: HCT8 (cultured, and as xenograft tumour in nude mice)
T2 sequence (Q04912 25-1400): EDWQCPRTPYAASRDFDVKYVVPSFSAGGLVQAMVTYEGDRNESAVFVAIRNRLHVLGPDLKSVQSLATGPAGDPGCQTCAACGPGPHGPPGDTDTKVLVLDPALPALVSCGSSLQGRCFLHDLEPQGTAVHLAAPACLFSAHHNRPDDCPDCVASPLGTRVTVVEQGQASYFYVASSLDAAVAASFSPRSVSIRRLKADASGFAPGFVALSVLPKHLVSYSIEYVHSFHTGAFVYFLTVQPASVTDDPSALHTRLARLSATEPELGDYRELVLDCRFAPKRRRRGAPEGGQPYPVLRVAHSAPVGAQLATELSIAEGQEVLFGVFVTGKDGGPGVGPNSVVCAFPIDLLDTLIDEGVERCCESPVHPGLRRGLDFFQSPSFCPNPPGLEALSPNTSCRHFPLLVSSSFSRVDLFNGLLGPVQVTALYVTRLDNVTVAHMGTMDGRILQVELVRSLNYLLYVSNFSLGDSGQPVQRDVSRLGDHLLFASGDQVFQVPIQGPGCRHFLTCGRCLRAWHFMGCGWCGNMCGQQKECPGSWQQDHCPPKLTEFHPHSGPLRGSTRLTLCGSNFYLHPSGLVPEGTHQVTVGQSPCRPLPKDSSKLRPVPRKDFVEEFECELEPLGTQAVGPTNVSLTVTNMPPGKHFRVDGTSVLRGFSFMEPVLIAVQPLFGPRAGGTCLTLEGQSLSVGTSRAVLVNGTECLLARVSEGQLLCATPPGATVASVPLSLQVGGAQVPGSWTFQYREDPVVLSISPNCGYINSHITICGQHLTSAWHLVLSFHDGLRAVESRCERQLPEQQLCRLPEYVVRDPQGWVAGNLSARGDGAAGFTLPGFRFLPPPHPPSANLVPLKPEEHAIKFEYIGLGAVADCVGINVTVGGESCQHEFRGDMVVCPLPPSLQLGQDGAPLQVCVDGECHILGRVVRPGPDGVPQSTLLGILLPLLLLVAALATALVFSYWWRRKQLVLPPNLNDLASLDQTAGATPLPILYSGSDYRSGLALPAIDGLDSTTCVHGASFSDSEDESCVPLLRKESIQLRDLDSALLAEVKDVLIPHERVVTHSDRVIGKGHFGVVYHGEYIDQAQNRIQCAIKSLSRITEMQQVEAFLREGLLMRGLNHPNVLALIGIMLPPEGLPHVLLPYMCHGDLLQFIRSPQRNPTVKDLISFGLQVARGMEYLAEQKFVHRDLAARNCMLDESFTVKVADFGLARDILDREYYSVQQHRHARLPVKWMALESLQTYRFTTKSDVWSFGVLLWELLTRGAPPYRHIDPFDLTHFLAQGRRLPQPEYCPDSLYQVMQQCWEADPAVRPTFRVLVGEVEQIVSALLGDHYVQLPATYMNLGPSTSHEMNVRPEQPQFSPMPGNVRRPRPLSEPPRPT
In words: RON phosphorylation in tumor tissue of the HCT8 xenograft model (immunochemical staining, western blot). It is filed as in vivo. Conditions: after completion of administration, FIG. 8c, 8d. The procedure: as §2
(In general: A western blot detects proteins with antibodies after separation by electrophoresis.)

Series [8] addresses T3, RON-active Δ155 (Homo sapiens, UniProt Q04912, DEL574-682/INS813Q).
T3 construct: expressed in transfected cells; host or cells: Colo320HSR
Description: Inhibition of RON phosphorylation in Colo320HSR introduced with RON variant. It counts as cell-based. Conditions: Colo320HSR with RON-active Δ155 gene. The procedure: as §2

The test system of series [9] is RON-active Δ160. The series is described as above. Conditions: Colo320HSR with RON-active Δ160 gene. It is filed as cell-based. The procedure:
as §2

Series [10] relates to HT29. In words: Induction of apoptosis. It counts as cell-based. The procedure:
(§3) HT29 and HCT8, the colon cancer cell lines which have a high p-RON expression level because RON is always phosphorylated, were treated with CJ12524 in order to confirm the presence of apoptosis.

Series [11] relates to HCT8. In words: Induction of apoptosis. It is filed as cell-based. The procedure:
as §3

Series [12] relates to MKN1 cells transplanted into Balb/c nude mice. Description: Stomach cancer cell xenograft mouse model without RON activity, tumor volume. It counts as in vivo. As to conditions: 30 mpk and 100 mpk oral daily, FIG. 9. From the text:
It was confirmed whether tumor formation can be inhibited by CJ12537 in a stomach cancer xenograft mouse model without RON activity.
Specifically, 5-to 6-week-old Balb/c nude mice were subcutaneously injected with 1×10^7 cells (MKN1 parent, MKN1 RONΔ160 stable cell) and Matrigel at a 1:1 (v/v) ratio. When the tumor size grew to a size of 90 mm^3 to 100 mm^3, the mice were divided into groups and administered with drugs. Vehicle, CJ12537 (30 mpk), CJ12537 (100 mpk), and positive control (Amgen; 30 mpk) were orally administered daily. The tumor size was measured once in three days. Upon completion of the administration, the mice were sacrificed and tissues were ablated and the weight of tumor was measured. In particular, proteins were extracted from the tissues and the changes in expression pattern of p-RON and related proteins were confirmed by western blot analysis. Additionally, for confirming the change in tumor size, the tumor size was measured once every three days and compared and analyzed even after the completion of drug administration.

The subject of series [13] is Colo320HSR introduced with RON Δ155. In words: Colo320HSR xenograft animal model, inhibition of tumor growth. It counts as in vivo. Conditions: RON-active variant Δ155. The procedure: (§4) Specifically, an animal model using the Colo320HSR cell line without RON activity (control group) and an animal model using the cell line introduced with the RON-active Δ155 gene and the RON-active Δ160 gene, which are constantly expressed, or a RON M1254T mutant were prepared, and their effects of inhibiting tumor formation by CJ12537 were compared.

In series [14] the test system is Colo320HSR control (pMET & pRON negative, without RON activity). The series is described as above. It is filed as in vivo. Conditions: various concentrations. The procedure:
as §4

Series [15] relates to Colo320HSR introduced with RON Δ160. The series is described as above. It is filed as in vivo. The procedure: as §4
Setting [16] is: various concentrations, 14 days, FIG. 8a.

Molecules are shown by their SMILES. Entries after “also recorded” stand apart in the source; their conditions may differ.

T1 sequence (Q04912 25-1400): as above
T3 sequence (Q04912 with tags, fused parts or gaps isoform Q04912-2 DEL574-682/INS813Q): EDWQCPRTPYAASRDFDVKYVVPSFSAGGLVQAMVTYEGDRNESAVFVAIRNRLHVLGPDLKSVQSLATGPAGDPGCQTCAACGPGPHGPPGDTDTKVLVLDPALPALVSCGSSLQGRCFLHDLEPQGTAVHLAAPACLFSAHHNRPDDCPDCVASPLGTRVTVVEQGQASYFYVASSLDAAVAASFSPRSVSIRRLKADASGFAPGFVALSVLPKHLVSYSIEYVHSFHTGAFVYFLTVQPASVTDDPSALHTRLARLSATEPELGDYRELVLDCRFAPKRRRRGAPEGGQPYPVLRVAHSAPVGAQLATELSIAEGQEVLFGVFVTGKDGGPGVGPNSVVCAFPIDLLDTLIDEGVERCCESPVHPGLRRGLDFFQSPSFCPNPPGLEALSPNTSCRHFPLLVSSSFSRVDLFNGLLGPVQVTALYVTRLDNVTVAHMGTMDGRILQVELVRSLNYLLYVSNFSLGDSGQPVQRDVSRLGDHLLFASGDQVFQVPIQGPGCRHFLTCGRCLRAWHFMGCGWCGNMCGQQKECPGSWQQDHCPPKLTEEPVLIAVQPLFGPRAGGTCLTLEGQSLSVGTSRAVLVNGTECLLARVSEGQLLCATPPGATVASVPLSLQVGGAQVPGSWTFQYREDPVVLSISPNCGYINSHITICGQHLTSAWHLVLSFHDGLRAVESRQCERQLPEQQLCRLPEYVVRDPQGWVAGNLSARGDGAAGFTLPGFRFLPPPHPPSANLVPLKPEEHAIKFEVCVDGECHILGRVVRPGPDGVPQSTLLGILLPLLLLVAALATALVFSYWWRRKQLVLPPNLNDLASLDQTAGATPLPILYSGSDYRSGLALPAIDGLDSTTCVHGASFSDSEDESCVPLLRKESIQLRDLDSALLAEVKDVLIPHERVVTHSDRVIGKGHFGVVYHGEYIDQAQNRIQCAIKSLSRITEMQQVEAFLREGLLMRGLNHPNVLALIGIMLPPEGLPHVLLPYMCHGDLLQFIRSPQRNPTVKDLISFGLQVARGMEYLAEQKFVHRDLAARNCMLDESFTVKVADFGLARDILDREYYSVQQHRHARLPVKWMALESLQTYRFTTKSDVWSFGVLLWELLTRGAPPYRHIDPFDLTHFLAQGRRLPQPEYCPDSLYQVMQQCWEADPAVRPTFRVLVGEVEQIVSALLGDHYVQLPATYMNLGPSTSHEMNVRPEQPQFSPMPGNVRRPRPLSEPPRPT

Turning to `CCOc1ccn(-c2ccc(F)cc2)c(=O)c1C(=O)Nc1ccc(Oc2ccnc3cc(-c4ccccn4)sc23)c(F)c1` [CJ12524, 4-ethoxy-N-(3-fluoro-4-(2-(pyridin-2-yl)thieno[3,2-b]pyridin-7-yloxy)phenyl)-1-(4-fluorophenyl)-2-oxo-1,2-dihydropyridin-3-carboxamide], the “expression of cleaved caspase 3 (apoptosis marker)” value in series [1] (Colo320HSR RON-active Δ160, according to the concentration) is recorded as “increased”; in series [2] (Colo320HSR RON-active Δ155, according to the concentration), “increased”. Also, the apoptosis entry in series [1] (Colo320HSR RON-active Δ160, various concentrations, FIG. 7d) is “increased”; in [2] (Colo320HSR RON-active Δ155, various concentrations, FIG. 7d), “increased”; in [10] (HT29, various concentrations, according to the concentration, FIG. 7c), “increased”; in [11] (HCT8, various concentrations, according to the concentration, FIG. 7c), “increased”. Besides, the RON phosphorylation entry is listed as “inhibited; also recorded: reduced” in series [3], “inhibited; also recorded: reduced” in [5], “reduced” in series [8] and “reduced” in series [9]. In addition, the “inhibition of the degree of cell metastasis (cell invasion)” value in [4] was “about 60%”. The “tumor weight upon completion of drug administration” value in [6] (all treated groups, FIG. 8b) is “reduced”. Moreover, the “body weight of the mice” value in [6] (setting [16]) is reported as “almost no decrease”. Further, the “tumor growth (tumor size)” value in series [6] (setting [16]) is on record as “inhibited”. Moreover, the “RON phosphorylation in tumor tissue” value in series [7] is given as “decreased”. Further, the “expression of cleaved caspase 3” value in [10] (HT29) and in series [11] (HCT8) was “increased” throughout.

Turning to `CCOc1ccn(-c2ccc(F)cc2)c(=O)c1C(=O)Nc1ccc(Oc2ccnc3cc(-c4cn(C)cn4)sc23)c(F)c1` [CJ12537, 4-ethoxy-N-(3-fluoro-4-(2-(1-methyl-1H-imidazol-4-yl)thieno[3,2-b]pyridin-7-yloxy)phenyl)-1-(4-fluorophenyl)-2-oxo-1,2-dihydropyridin-3-carboxamide], the tumor volume result in series [12] is listed as “no noticeable change”. In addition, the tumor formation result in series [13] is on record as “inhibited tumor formation”; in [14] it was “did not inhibit tumor formation at all”; in series [15] (RON-active variant Δ160), “inhibited tumor formation”. For the same compound, the “Tumor growth relative to vehicle (fold)” value in [15] (Colo320HSR RON Δ160, 30 MPK, vehicle = 1) came out at 0.71 fold.

For the origin of these results see patent US11946934B2, “Biomarker for predicting the sensitivity to a protein kinase inhibitor and a use thereof” (Wellmarker Bio Co., LTD., priority 2014, dated 2024).
